Several values for one entry are separate records, joined by “and”; a condition that tells them apart may be missing. Equal entries are not always repeated.
Columns and labels:
[1] = test system: SKOV3 cells (wildtype, drug sensitive human ovarian cancer cell line); experiment: In-vitro cytotoxicity, MTS (formazan) assay, 6-day treatment; assay type: cell-based; details: 6 days
Protocol: (§1) In in-vitro cytotoxicity studies, the wildtype (drug sensitive (DS)) human ovarian cancer cell line SKOV3 was maintained in culture alongside an SKOV3TR subculture that was selected for multi-drug resistance in the presence of increasing concentrations of PTX. For cytotoxicity studies, 96-well plates were prepared with each cell type seeded at 5000 cells/well. The DS and MDR cells were subjected to dose-response studies against PTX, CER and PTX combined with CER, delivered as free drugs in solution or delivered in PEO-PCL nanoparticles. All studies were performed alongside a negative control (cell growth medium), a positive control (polyethyleneimine, PEI), and proper vehicle controls. Since PTX is a cell-cycle dependant chemotherapeutic, all treatments were left to proceed undisturbed for 6 days, allowing ample time for all cells to enter mitosis. Resulting cell death/viability was measured by the MTS (formazan) assay.

[2] = test system: SKOV3TR cells (multi-drug resistant, PTX-selected subculture of SKOV3); experiment: cells; assay type: cell-based, human
Protocol: as §1

Row | Compound | percent cell viability ([1]; SKOV3, CER alone 10 μM in solution, p<0.05) [%] | percent cell viability ([2]; CER alone 20 μM in solution, 6 days) | viability at 0.001 µM ([1]; Homo sapiens, SK-OV-3, 144 h, SKOV3, 1 nM PTX in solution, read-out: percent cell viability (cells survived)) [%] | viability at 0.1 µM ([1]; Homo sapiens, SK-OV-3, 144 h, SKOV3, 100 nM PTX in solution, read-out: percent cell viability (cells survived)) [%] | IC50 ([1]; Homo sapiens, SK-OV-3, 144 h, SKOV3, free drug in solution, read-out: IC50 of drug sensitive (SKOV3) cells to PTX in solution) [nM] | percent of MDR cells survived ([2]; 10 nM PTX) [%] | percent cell viability ([2]; 1 μM PTX in solution, 6 days) [%] | viability at 0.1 µM ([2]; Homo sapiens, 144 h, 100 nM PTX in solution, 6 days, read-out: percent cell viability) [%] | viability at 1 µM ([2]; Homo sapiens, 144 h, 1 μM PTX in solution, 6 days, read-out: percent cell viability) [%]
1 | CCCCCCCCCCCCC/C=C/[C@@H](O)[C@H](CO)NC(=O)CCCCC [CER, C6-ceramide] | 75.08±7.86 | 91.18±7.61% and 91.2±7.6% |  |  |  |  |  |  | 
2 | CC(=O)O[C@H]1C(=O)[C@@]2(C)[C@H]([C@H](OC(=O)c3ccccc3)[C@]3(O)C[C@H](OC(=O)[C@H](O)[C@@H](NC(=O)c4ccccc4)c4ccccc4)C(C)=C1C3(C)C)[C@]1(OC(C)=O)CO[C@@H]1C[C@@H]2O [PTX, Paclitaxel] |  |  | 76 ± 5.92 | 16.4 ± 0.41 | ~5 | 100 | 65.6±2.2 | 100 ± 5.78 | 65.7 ± 2.16
